According to US7435837B2, “Dihydrobenzofuranyl alkanamine derivatives and methods for using same” (Wyeth, priority 2003, dated 2008):

Molecular target: T1, human 5-HT2C receptor (Homo sapiens, UniProt P28335)
T1 sequence (P28335 33-458): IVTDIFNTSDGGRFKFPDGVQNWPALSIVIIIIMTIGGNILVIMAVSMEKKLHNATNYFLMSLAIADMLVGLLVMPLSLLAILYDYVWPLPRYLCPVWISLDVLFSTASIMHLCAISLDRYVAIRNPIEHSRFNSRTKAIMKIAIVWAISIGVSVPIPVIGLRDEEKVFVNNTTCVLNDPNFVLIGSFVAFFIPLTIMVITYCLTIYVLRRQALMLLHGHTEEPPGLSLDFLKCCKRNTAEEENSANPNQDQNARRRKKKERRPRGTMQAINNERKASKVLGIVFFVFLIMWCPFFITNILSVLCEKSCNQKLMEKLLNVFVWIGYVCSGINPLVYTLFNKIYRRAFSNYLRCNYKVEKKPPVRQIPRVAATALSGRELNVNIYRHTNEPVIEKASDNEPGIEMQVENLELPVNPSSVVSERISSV
Assay: 5-HT2C receptor-stimulated calcium mobilization (FLIPR) in CHO cells;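 note: Fluo-3-AM fluorescence read on FLIPR every 1 s, agonist added after 10 baseline reads, response taken as peak minus lowest raw fluorescence count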
Format: cell-based
Details: for Emax: CHO, read-out: 5-HT2C Function Emax (%); for Emax / 5-HT2C Function Emax (%): percentage of the response observed with a maximally effective concentration of 5-HT; for EC50: calcium mobilization, CHO cells stably expressing human 5-HT2C, read-out: 5-HT2C Function EC50

SMILES | Emax | EC50 | 5-HT2C Function Emax (%)
Fc1cc2c(c(-c3c(Cl)cccc3Cl)c1)OC(CN1CCOCC1)C2 (racemic) [Example 239, (±)-1-{[7-(2,6-dichlorophenyl)-5-fluoro-2,3-dihydro-1-benzofuran-2-yl]methyl}morpholine] | 40% | 1430 nM | 
CNCC1Cc2cc(F)cc(-c3c(C)cccc3C)c2O1 (single isomer, unassigned; (+)) [Example 558, (+)-{[7-(2,6-dimethylphenyl)-5-fluoro-2,3-dihydro-1-benzofuran-2-yl]methyl}methylamine] | 70% | 265 nM | 
COc1cccc(-c2cc(F)cc3c2OC(CN)C3)c1OC (single isomer, unassigned; (+)) [Example 214, (+)-{[7-(2,3-dimethoxyphenyl)-5-fluoro-2,3-dihydro-1-benzofuran-2-yl]methyl}amine] |  | 79 nM | 70%
CNCC1Cc2cc(Cl)cc(-c3cc(Cl)ccc3Cl)c2O1 (single isomer, unassigned; (-)) [Example 563, (−)-{[5-chloro-7-(2,5-dichlorophenyl)-2,3-dihydro-1-benzofuran-2-yl]methyl}methylamine] |  | 135 nM | 70%
CNCC1Cc2cc(F)cc(-c3cccc(OC)c3OC)c2O1 (racemic) [Example 444, (±)-{[7-(2,3-dimethoxyphenyl)-5-fluoro-2,3-dihydro-1-benzofuran-2-yl]methyl}methylamine] | 80% | 37 nM | 
CNCC1Cc2cccc(-c3cccnc3)c2O1 (racemic) [Example 436, (±)-N-methyl-1-(7-pyridin-3-yl-2,3-dihydro-1-benzofuran-2-yl)methanamine] | 90% | 55 nM | 
CNCC1Cc2cccc(-c3cccc(C)c3C)c2O1 (racemic) [Example 422, (±)-[(N-methyl-1-[7-(2,3-dimethylphenyl)-2,3-dihydro-1-benzofuran-2-yl]methanamine] | 80% | 443 nM | 
CNCC1Cc2cc(F)cc(-c3c(Cl)cccc3Cl)c2O1 (single isomer, unassigned; (-)) [Example 544, (−){[7-(2,6-dichlorophenyl)-5-fluoro-2,3-dihydro-1-benzofuran-2-yl]methyl}methylamine] |  | 73 nM | 70%
NC[C@H]1Cc2cc(F)cc(-c3c(Cl)cccc3Cl)c2O1 [Example 550, (−)-{[7-(2,6-dichlorophenyl)-5-fluoro-2,3-dihydro-1-benzofuran-2-yl]methyl}amine] | 100% |  | 
COc1cccc(-c2cc(C)cc3c2OC(CN)C3)c1OC (single isomer, unassigned; (-)) [Example 295, (−)-{[7-(2,3-dimethoxyphenyl)-5-methyl-2,3-dihydro-1-benzofuran-2-yl]methyl}amine] | 90% | 8 nM | 
Cc1cccc(C)c1-c1cc(Cl)cc2c1OC(CN1CCNCC1)C2 (racemic) [Example 279, (±)-1-{[5-chloro-7-(2,6-dimethylphenyl)-2,3-dihydro-1-benzofuran-2-yl]methyl}piperazine] | 70% | 155 nM | 
CNCC1Cc2cc(Cl)cc(-c3ccc(F)cc3F)c2O1 (racemic) [Example 467, (±)-{[5-chloro-7-(2,4-difluorophenyl)-2,3-dihydro-1-benzofuran-2-yl]methyl}methylamine] | 80% | 257 nM | 
CNCC1Cc2cccc(-c3cccc(F)c3F)c2O1 (racemic) [Example 437, (±)-[(N-methyl-1-[7-(2,3-difluorophenyl)-2,3-dihydro-1-benzofuran-2-yl]methanamine] | 80% | 30 nM | 
COc1cccc(-c2cc(F)cc3c2OC(CN)C3)c1OC (single isomer, unassigned; (-)) [Example 213, (−)-{[7-(2,3-dimethoxyphenyl)-5-fluoro-2,3-dihydro-1-benzofuran-2-yl]methyl}amine] |  | 9 nM | 100%
CCNCC1Cc2cc(Cl)cc(-c3c(C)cccc3C)c2O1 (racemic) [Example 271, (±)-N-{[5-chloro-7-(2,6-dimethylphenyl)-2,3-dihydro-1-benzofuran-2-yl]methyl}ethanamine] | 90% | 594 nM | 
CNCC1Cc2cc(Cl)cc(-c3ccccc3F)c2O1 (racemic) [Example 462, (±)-[(5-chloro-7-(2-fluorophenyl)-2,3-dihydro-1-benzofuran-2-yl]methyl}methylamine] | 80% | 79 nM | 
CNCC1Cc2cc(F)cc(-c3cccc(OC)c3OC)c2O1 (single isomer, unassigned; (-)) [Example 568, (−)-{[7-(2,3-dimethoxyphenyl)-5-fluoro-2,3-dihydro-1-benzofuran-2-yl]methyl}methylamine] | 80% | 4 nM | 
Cc1cccc(C)c1-c1cc(Cl)cc2c1OC(CNC(C)C)C2 (racemic) [Example 272, (±)-N-{[5-chloro-7-(2,6-dimethylphenyl)-2,3-dihydro-1-benzofuran-2-yl]methyl}propan-2-amine] | 70% | 845 nM | 
NCC1Cc2cccc(-c3cccc(F)c3F)c2O1 (racemic) [Example 160, (±)-{[7-(2,3-difluorophenyl)-2,3-dihydro-1-benzofuran-2-yl]methyl}amine] | 100% | 32 nM | 

Results, then the compound that gave them:

Emax | EC50 | 5-HT2C Function Emax (%) | SMILES
70% | 288 nM |  | Cc1cccc(C)c1-c1cc(Cl)cc2c1OC(CN1CCCC1)C2 (racemic) [Example 280, (±)-1-{[5-chloro-7-(2,6-dimethylphenyl)-2,3-dihydro-1-benzofuran-2-yl]methyl}pyrrolidine]
 | 471 nM | 70% | Cc1cccc(C)c1-c1cc(Cl)cc2c1OC(CN)C2 (single isomer, unassigned; (+)) [Example 262, (+)-{[5-chloro-7-(2,6-dimethylphenyl)-2,3-dihydro-1-benzofuran-2-yl]methyl}amine]
 |  | 90% | NCC1Cc2cc(Cl)cc(-c3cccc(F)c3F)c2O1 (racemic) [Example 246, (±)-{[5-chloro-7-(2,3-difluorophenyl)-2,3-dihydro-1-benzofuran-2-yl]methyl}amine]
80% | 73 nM |  | CNCC1Cc2cc(Cl)cc(-c3ccc(Cl)cc3Cl)c2O1 (racemic) [Example 468, (±)-{[5-chloro-7-(2,4-dichlorophenyl)-2,3-dihydro-1-benzofuran-2-yl]methyl}methylamine]
90% | 215 nM |  | CNCC1Cc2cc(Cl)cc(-c3ccccc3OC)c2O1 (racemic) [Example 460, (±)-[(5-chloro-7-(2-methoxyphenyl)-2,3-dihydro-1-benzofuran-2-yl]methyl}methylamine]
80% | 0.2 nM |  | Clc1cccc(Cl)c1-c1cccc2c1OC(CNC1CC1)C2 (racemic) [Example 391, (±)-N-{[7-(2,6-dichlorophenyl)-2,3-dihydro-1-benzofuran-2-yl]methyl}cyclopropanamine]
70% | 330 nM |  | Cc1cccc(C)c1-c1cc(Cl)cc2c1OC(CN(C)C)C2 (racemic) [Example 274, (±)-{[5-chloro-7-(2,6-dimethylphenyl)-2,3-dihydro-1-benzofuran-2-yl]methyl}dimethylamine]
80% | 34 nM |  | CNCC1Cc2cc(Cl)cc(-c3c(C)cccc3C)c2O1 (racemic) [Example 461, (±)-{[5-chloro-7-(2,6-dimethylphenyl)-2,3-dihydro-1-benzofuran-2-yl]methyl}methylamine]
80% | 72 nM |  | CNCC1Cc2cccc(-c3c(C)cccc3C)c2O1 (racemic) [Example 432, (±)-[(N-methyl-1-[7-(2,6-dimethylphenyl)-2,3-dihydro-1-benzofuran-2-yl]methanamine]
100% | 9 nM |  | CNCC1Cc2cccc(-c3ccc(Cl)cc3Cl)c2O1 (racemic) [Example 425, (±)-[(N-methyl-1-[7-(2,4-dichlorophenyl)-2,3-dihydro-1-benzofuran-2-yl]methanamine]
80% | 69 nM |  | CNCC1Cc2cccc(-c3cc(F)ccc3F)c2O1 (racemic) [Example 428, (±)-[(N-methyl-1-[7-(2,5-difluorophenyl)-2,3-dihydro-1-benzofuran-2-yl]methanamine]
80% | 353 nM |  | CNCC1Cc2cc(Cl)cc(-c3cc(Cl)ccc3OC)c2O1 (racemic) [Example 472, (±)-{[5-chloro-7-(5-chloro-2-methoxyphenyl)-2,3-dihydro-1-benzofuran-2-yl]methyl}methylamine]
60% | 726 nM |  | CCCNCC1Cc2cc(Cl)cc(-c3c(C)cccc3C)c2O1 (racemic) [Example 278, (±)-N-{[5-chloro-7-(2,6-dimethylphenyl)-2,3-dihydro-1-benzofuran-2-yl]methyl}propan-1-amine]
 | 287 nM | 70% | CNCC1Cc2cc(Cl)cc(-c3c(C)cccc3C)c2O1 (single isomer, unassigned; (+)) [Example 565, (+)-{[5-chloro-7-(2,6-dimethylphenyl)-2,3-dihydro-1-benzofuran-2-yl]methyl}methylamine]
 | 82 nM | 80% | CNCC1Cc2cccc(-c3c(Cl)cccc3Cl)c2O1 (single isomer, unassigned; (+)) [Example 435, (+)-{[7-(2,6-dichlorophenyl)-2,3-dihydro-1-benzofuran-2-yl]methyl}methylamine]
